Each compound was assayed on HBV (assay: HBV infection in HepG2-NTCP cells (HBeAg AlphaLISA in supernatants)). Conditions: Hepatitis B virus, 192 h; HBV infection of HepG2-NTCP cells; HBeAg in supernatants at day 8 post infection; read-out: Cellular EC50.
Format: cell-based
Method: HepG2-NTCP A3 cells were maintained in DMEM media supplemented with GlutaMAX™ 10% fetal bovine serum, 1% penicillin/streptomycin, and 5 μg/mL puromycin at 37° C. in a humidified atmosphere with 5% CO2 in a collagen-coated tissue culture flask.
HepG2-NTCP cells were seeded in 384 well plate containing 16,000 cells/well two days prior to the infection. On the day of infection, compounds were 3-fold serially diluted in DMSO and pre-incubated with HepG2-NTCP cells for two hours before purified HBV addition. HBV infection was carried out at 2000 GE/cell with 4% PEG, and the final concentration of DMSO is 0.5%. On day one post infection, HBV-containing media was aspirated, cells were washed once with PBS and then maintained in 2.5% DMSO containing media for the remainder of the assay.
Supernatants from infected HepG2-NTCP cells were collected at day 8 post infection, and the amount of viral antigen HBeAg was measured by HBeAg AlphaLISA detection kit (PerkinElmer) following the manufacturer's recommended protocol. Irrespective of readout, compound concentrations that reduce viral product accumulation in supernatants by […] relative to DMSO controls (EC50) are reported. EC50 ranges are as follows: A<0.1 μM; B 0.1-1 μM; C>1 μM.

EC50	SMILES
< 100 nM	CCCCOc1cccc(N2C[C@@H](C3CCCCC3)N(C)S(=O)(=O)c3cc(-c4ccc(F)c(C(=O)O)c4)c(Cl)cc32)c1 [Example 310]
< 100 nM	CC(C)C[C@@H]1CN(c2ccccc2)c2cc(O[C@@H]3C[C@H](C)CCC3C(C)C)c(-c3ccc(F)c(C(=O)O)c3)cc2S(=O)(=O)N1C (some centres unmarked) [Example 442]
> 1000 nM	CN1[C@H](C2CCCCC2)CN(c2ccccc2)c2cc(OCCc3cn(C)cn3)c(-c3ccc(F)c(C(=O)O)c3)cc2S1(=O)=O [Example 392]
< 100 nM	CN1[C@H](CC(C)(C)C)CN(c2ccccc2)c2cc(Cl)c(-c3ccc(Cl)c(C(=O)O)c3)cc2S1(=O)=O [Example 51]
< 100 nM	COCCOC(=O)Nc1ccc(-c2cc3c(cc2OCCOC)N(c2ccccc2)C[C@@H](C2CCCCC2)N(C)S3(=O)=O)cc1C(=O)O [Example 479, (R)-5-(3-cyclohexyl-7-(2-methoxyethoxy)-2-methyl-1,1-dioxido-5-phenyl-2,3,4,5-tetrahydrobenzo[f][1,2,5]thiadiazepin-8-yl)-2-(((2-methoxyethoxy)carbonyl)amino)benzoic acid]
< 100 nM	CC(C)OCCOc1cc2c(cc1-c1cc(F)c(C(=O)O)s1)S(=O)(=O)N(C)[C@H](C1CCCCC1)CN2c1ccccc1 [Example 497]
< 100 nM	CN1[C@H](C2CCCCC2)CN(c2ccccc2)c2cc(Cl)c(-c3ccc(Cl)c(C(=O)O)c3)cc2S1(=O)=O [Example 26]
100 to 1000 nM	CCCC[C@@H]1CN(c2ccccc2)c2cc(Oc3ccccc3Cl)c(-c3ccc(F)c(C(=O)O)c3)cc2S(=O)(=O)N1C [Example 422]
> 1000 nM	CN1[C@H](C2CCC2)CN(c2ccccc2)c2cc(Cl)c(-c3cccc(S(N)(=O)=O)c3)cc2S1(=O)=O [Example 178]
100 to 1000 nM	CN1C(CC2CCCC2)CN(c2ccccc2)c2cc(Cl)c(-c3ccc(F)c(C(=O)O)c3)cc2S1(=O)=O (centres unmarked) [Example 77]
100 to 1000 nM	CN1[C@H](C2CCCCC2)CNc2cc(-c3ccoc3)c(-c3ccc(F)c(C(=O)O)c3)cc2S1(=O)=O [Example 571]
< 100 nM	CN1[C@H](C2CCCCC2)CN(c2ccccc2)c2cc(Oc3cccc(F)c3F)c(-c3ccc(F)c(C(=O)O)c3)cc2S1(=O)=O [Example 402]
> 1000 nM	CN1[C@H](CNC(C)(C)C)CN(c2ccccc2)c2cc(Cl)c(-c3ccc(F)c(C(=O)O)c3)cc2S1(=O)=O [Example 114]
100 to 1000 nM	CCOC[C@@H]1CN(c2ccccc2)c2cc(Cl)c(-c3ccc(F)c(C(=O)O)c3)cc2S(=O)(=O)N1C [Example 93, (S)-5-(7-chloro-3-(ethoxymethyl)-2-methyl-1,1-dioxido-5-phenyl-2,3,4,5-tetrahydrobenzo[f][1,2,5]thiadiazepin-8-yl)-2-fluorobenzoic acid]
100 to 1000 nM	CN1[C@H](C2CCCCC2)CN(c2ccccc2)c2cc(Cl)c(-c3ccnc(C(=O)O)c3)cc2S1(=O)=O [Example 137, (R)-4-(7-chloro-3-cyclohexyl-2-methyl-1,1-dioxido-5-phenyl-2,3,4,5-tetrahydrobenzo[f][1,2,5]thiadiazepin-8-yl)picolinic acid]
100 to 1000 nM	CCO[C@@H](C)[C@@H]1CN(c2ccccc2)c2cc(Cl)c(-c3ccc(F)c(C(=O)O)c3)cc2S(=O)(=O)N1C [Example 89]
< 100 nM	Cc1cncc(N2C[C@@H](C3CCCCC3)N(C)S(=O)(=O)c3cc(-c4ccc(F)c(C(=O)O)c4)c(Cl)cc32)c1 [Example 281]
100 to 1000 nM	CN1[C@H](C2CCCCC2)CN(c2ccccc2)c2cc(OC3CC4(CCC4)C3)c(-c3cc(F)c(C(=O)O)s3)cc2S1(=O)=O [Example 484]
< 100 nM	CN1[C@H](C2CCCCC2)CN(c2cccc(Cl)c2)c2cc(Cl)c(-c3ccc(F)c(C(=O)O)c3)cc2S1(=O)=O [Example 296]
< 100 nM	CN1[C@H](C2CCCCC2)CN(c2ccccc2)c2cc(OCCCCO)c(-c3ccc(F)c(C(=O)O)c3)cc2S1(=O)=O [Example 365]
100 to 1000 nM	CN1[C@H](C2CCCCC2)CN(c2ccccc2)c2cc(Cl)c(-c3cnc(O)c(C(=O)O)c3)cc2S1(=O)=O [Example 193]
100 to 1000 nM	COC(=O)c1noc2ccc(-c3cc4c(cc3Cl)N(c3ccccc3)C[C@@H](CC(C)C)N(C)S4(=O)=O)cc12 [Example 182]
> 1000 nM	Cc1ccc(C(=O)O)c(C)c1-c1cc2c(cc1Cl)N(c1ccccc1)C[C@@H](C1CCCCC1)N(C)S2(=O)=O [Example 146, 3-((3R)-7-chloro-3-cyclohexyl-2-methyl-1,1-dioxido-5-phenyl-2,3,4,5-tetrahydrobenzo[f][1,2,5]thiadiazepin-8-yl)-2,4-dimethylbenzoic acid]
100 to 1000 nM	CC(C)CC1CN(c2ccc(F)cc2)c2cc(Cl)c(-c3cccc(C(=O)O)c3)cc2S(=O)(=O)N1C (centres unmarked) [Example 331]
< 100 nM	CC(C)CC1CN(c2ccccc2)c2cc(N3CCCCC3)c(-c3cccc(C(=O)O)c3)cc2S(=O)(=O)N1C (centres unmarked) [Example 545]

EC50	SMILES
< 100 nM	CCC[C@@H]1CN(c2ccccc2)c2cc(Cl)c(-c3ccc(Cl)c(C(=O)O)c3)cc2S(=O)(=O)N1C [Example 48]
< 100 nM	CN1[C@H](C2CCCCC2)CN(c2ccccc2)c2cc(OCc3cscn3)c(-c3ccc(F)c(C(=O)O)c3)cc2S1(=O)=O [Example 341]
< 100 nM	CCCCCCOc1cc2c(cc1-c1ccc(F)c(C(=O)O)c1)S(=O)(=O)N(C)[C@H](C1CCCCC1)CN2c1ccccc1 [Example 352]
100 to 1000 nM	CC(C)C[C@@H]1CN(c2ccccc2)c2cc(Cl)c(-c3ccc4o[nH]c(=O)c4c3)cc2S(=O)(=O)N1C [Example 180]
100 to 1000 nM	COCCOc1cc2c(cc1-c1ccc(Cl)c(C(=O)O)c1)S(=O)(=O)N(C)[C@H](CC(C)C)CN2c1ccccc1 [Example 445]
100 to 1000 nM	CN1[C@H](C2CCCCC2)CN(c2ccc(C#N)cc2)c2cc(Cl)c(-c3ccc(F)c(C(=O)O)c3)cc2S1(=O)=O [Example 290]
< 100 nM	CCCC[C@@H]1CN(c2ccccc2)c2cc(N(C)C)c(-c3ccc(F)c(C(=O)O)c3)cc2S(=O)(=O)N1C [Example 524]
< 100 nM	CC[C@@H](C)[C@@H]1CN(c2ccccc2)c2cc(Cl)c(-c3ccc(F)c(C(=O)O)c3)cc2S(=O)(=O)N1C [Example 68]
100 to 1000 nM	CC(C)C[C@@H]1CN(c2ccccc2)c2cc(Oc3ccc(Cl)c(C(F)(F)F)c3)c(-c3ccc(F)c(C(=O)O)c3)cc2S(=O)(=O)N1C [Example 434]
< 100 nM	CC(C)COc1cc2c(cc1-c1ccc(F)c(C(=O)O)c1)S(=O)(=O)N(C)[C@H](C1CCCCC1)CN2c1ccccc1 [Example 358]
< 100 nM	CN1[C@H](C2CCCCC2)CN(c2ccc(OC(F)(F)F)cc2)c2cc(Cl)c(-c3ccc(F)c(C(=O)O)c3)cc2S1(=O)=O [Example 292]
> 1000 nM	CC(C)C[C@@H]1CN(c2ccccc2)c2cc(Cl)c(-c3cccc(CC(=O)O)c3)cc2S(=O)(=O)N1C [Example 173]
< 100 nM	Cc1ccc(Oc2cc3c(cc2-c2ccc(F)c(C(=O)O)c2)S(=O)(=O)N(C)[C@H](C2CCCCC2)CN3c2ccccc2)cc1F [Example 411]
100 to 1000 nM	CN1[C@H](C2CCCCC2)CN(c2ccccc2)c2cc(Cl)c(-c3cc(C(=O)O)c4cc[nH]c4c3)cc2S1(=O)=O [Example 209]
100 to 1000 nM	CO[C@H]1C[C@H](Oc2cc3c(cc2-c2ccc(F)c(C(=O)O)c2)S(=O)(=O)N(C)[C@H](C2CCCCC2)CN3c2ccccc2)C1 [Example 378]
< 100 nM	CN1[C@H](C2CCCCC2)CN(c2ccccc2)c2cc(OCc3cscc3Cl)c(-c3cc(F)c(C(=O)O)s3)cc2S1(=O)=O [Example 494]
100 to 1000 nM	CC(C)C[C@@H]1CN(c2ccccc2)c2cc(Cl)c(-c3ccc4oncc4c3)cc2S(=O)(=O)N1C [Example 185]
100 to 1000 nM	CC(C)[C@@H]1CN(c2ccccc2)c2cc(Cl)c(-c3ccc(F)c(C(=O)O)c3)cc2S(=O)(=O)N1C [Example 61, (R)-5-(7-chloro-3-isopropyl-2-methyl-1,1-dioxido-5-phenyl-2,3,4,5-tetrahydrobenzo[f][1,2,5]thiadiazepin-8-yl)-2-fluorobenzoic acid]
> 1000 nM	CCCC[C@H]1CN(c2ccccc2)c2cc(Nc3ccccc3F)c(-c3cccc(C(=O)O)c3)cc2S(=O)(=O)N1C [Example 539]
> 1000 nM	CC(C)C[C@@H]1CN(c2ccccc2)c2cc(Nc3ccncc3)c(-c3ccc(Cl)c(C(=O)O)c3)cc2S(=O)(=O)N1C [Example 550]
< 100 nM	CC(C)CC1CN(c2ccccc2)c2cc(Cl)c(-c3ccc(F)c(C(=O)O)c3)cc2S(=O)(=O)N1C (centres unmarked) [Example 34]
> 1000 nM	C[C@H](OC(C)(C)C)[C@@H]1CN(c2ccccc2)c2cc(Cl)c(-c3ccc(F)c(C(=O)O)c3)cc2S(=O)(=O)N1C [Example 91]
100 to 1000 nM	CN1[C@H](C2CCCCC2)CN(c2ccccc2)c2cc(Oc3ccccn3)c(-c3ccc(F)c(C(=O)O)c3)cc2S1(=O)=O [Example 414]
< 100 nM	CN1[C@H](C2CCCCC2)CN(c2ccccc2)c2cc(OCCc3ccco3)c(-c3ccc(F)c(C(=O)O)c3)cc2S1(=O)=O [Example 345]

SMILES	EC50
CN1[C@H](C2CCCCC2)CN(c2ccccc2)c2cc(Cl)c(-c3cc(NC(=O)OC(C)(C)C)c(C(=O)O)s3)cc2S1(=O)=O [Example 238, (R)-3-((tert-butoxycarbonyl)amino)-5-(7-chloro-3-cyclohexyl-2-methyl-1,1-dioxido-5-phenyl-2,3,4,5-tetrahydrobenzo[f][1,2,5]thiadiazepin-8-yl)thiophene-2-carboxylic acid]	100 to 1000 nM

Source: US20240368096A1 (Enanta Pharmaceuticals, Inc., priority 2022, published 2024)
